Measurements taken from publication PMC11876601 (Molecular Systems Biology, 2025).
pEC50: −log10 of the molar value. Like-named read-outs stand apart in the source and are kept apart here.

Tests used:
Assay in all cases: cells
Parameters in all cases: Viability of PDAC cell lines, ATPlite luminescence, 11-dose single-agent curve fit
Suit2-07 = conditions: 72 h; for EC50: read-out: EC50 [nM]
Protocol: (§1) Afterward, small amounts were transferred to 384-well intermediate plates (Greiner Bio-One GmbH, Germany). […] For drug combination screening, 1000 to 5000 cells were seeded into 384-well plates (CulturPlate™, Perkin Elmer, MA, USA) using a Multidrop™ Combi Reagent Dispenser (Thermo Scientific, MA, USA) in 50 µl medium per well 24 h prior to drug treatment (seeding densities see Appendix Table S1). […] The final DMSO concentration in each well was 0.2%. […] Eight wells per plate without library drug served as negative controls, and sixteen wells per plate containing 5 µM Staurosporine served as positive controls. […] Next, we analyzed the drug sensitivity of immortalized duct cell line HPDE to detect effects unrelated to pancreatic cancer.

Capan-1 = conditions: for EC50: Homo sapiens, CAPAN-1, 72 h, read-out: EC50 [nM]
Protocol: as §1

HPDE = conditions: 72 h; for EC50: HPDE, read-out: EC50 [nM]
Protocol: as §1

AsPC-1 = conditions: for EC50: Homo sapiens, ASPC1, 72 h, read-out: EC50 [nM]
Protocol: as §1

Dan-G = conditions: 72 h; for EC50: read-out: EC50 [nM]
Protocol: as §1

FAMPAC = conditions: 72 h; for EC50: read-out: EC50 [nM]
Protocol: as §1

MiaPaCa-2 = conditions: for EC50: Homo sapiens, MIA PaCa-2, 72 h, read-out: EC50 [nM]
Protocol: as §1

HuP-T4 = conditions: for EC50: Homo sapiens, HuP-T4, 72 h, read-out: EC50 [nM]
Protocol: as §1

PSN-1 = conditions: for EC50: Homo sapiens, PSN1, 72 h, read-out: EC50 [nM]
Protocol: as §1

PaTu-8988-T = conditions: 72 h; for EC50: Homo sapiens, PaTu 8988t, read-out: EC50 [nM]
Protocol: as §1

PANC-1 = conditions: for EC50: Homo sapiens, PANC-1, 72 h, read-out: EC50 [nM]
Protocol: as §1

Colo-357 = conditions: for EC50: Homo sapiens, COLO357, 72 h, read-out: EC50 [nM]
Protocol: as §1

BxPC-3 = conditions: for EC50: Homo sapiens, BXPC-3, 72 h, read-out: EC50 [nM]
Protocol: as §1

Row | Structure (SMILES) | EC50 (AsPC-1) [nM] | EC50 (MiaPaCa-2) [nM] | EC50 (PANC-1) [nM] | EC50 (Colo-357) [nM] | EC50 (BxPC-3) [nM] | EC50 (Suit2-07) [nM] | EC50 (Capan-1) [nM] | EC50 (HPDE) [nM] | EC50 (Dan-G) [nM] | EC50 (FAMPAC) [nM] | EC50 (HuP-T4) [nM] | EC50 (PSN-1) [nM] | EC50 (PaTu-8988-T) [nM] | also measured
1 | Cc1cc(C)c(/C=C2\C(=O)Nc3ccccc32)[nH]1 [Semaxanib] | 3330 | > 10000 | 66.8 | 317 | 5.83 | 2320 | 5010 | > 10000 | 169 | 43.5 | 42.4 | 127 | 815 | 
2 | COc1cc2nccc(Oc3ccc(NC(=O)NC4CC4)c(Cl)c3)c2cc1C(N)=O [Lenvatinib] | 394 | 4890 | 655 | 4390 | > 10000 | 0.2 | 7850 | > 10000 | 39.1 | 164 | 0.14 | 7480 | > 10000 | 
3 | O=S(=O)(c1cccc2cnccc12)N1CCCNCC1 [Fasudil] | 2.85 | 3390 | 5330 | 6850 | 805 | 2790 | > 10000 | > 10000 | 2960 | > 10000 | 609 | 0.04 | 1140 | 
4 | Cc1c(F)cc(C(=O)NC2CC2)cc1-c1ccc(C(=O)NCC(C)(C)C)cn1 [Losmapimod] | 361 | 449 | 95.7 | 26.1 | 536 | 10.7 | 150 | 25.6 | 363 | 0.11 | 218 | 130 | 1180 | 
5 | Cc1cccc(-c2[nH]c(CNc3ccccc3F)nc2-c2ccc3ncnn3c2)n1 [Vactosertib] | 78.2 | 6110 | 3660 | 7510 | 2150 | 0.8 | 809 | 217 | 51.8 | 3450 | 17.8 | 4290 | 838 | 
6 | Cc1cn(-c2cc(NC(=O)c3ccc(C)c(Nc4nccc(-c5cccnc5)n4)c3)cc(C(F)(F)F)c2)cn1 [Nilotinib] | > 10000 | 3700 | 3790 | > 10000 | 3610 | 186 | > 10000 | > 10000 | > 10000 | > 10000 | 22.2 | > 10000 | 5190 | 
7 | N#CC1(c2ccc(NC(=O)c3cccnc3NCc3ccncc3)cc2)CCCC1 [Apatinib] | 452 | > 10000 | 2350 | 4280 | 5230 | 1420 | > 10000 | 7430 | 5380 | > 10000 | 283 | > 10000 | > 10000 | 
8 | N#CCC1(n2cc(-c3ncnc4[nH]ccc34)cn2)CN(C2CCN(C(=O)c3ccnc(C(F)(F)F)c3F)CC2)C1 [Itacitinib] | 17.1 | 770 | 21.2 | 75 | 52.1 | 72.1 | 142 | 873 | 3820 | 1420 | 316 | 124 | 292 | 
9 | O=C(Nc1cnn2ccc(N3CCC[C@@H]3c3cc(F)ccc3F)nc12)N1CC[C@H](O)C1 [Larotrectinib] |  |  |  |  |  |  |  |  |  |  |  |  |  | pEC50 (Suit2-07; read-out: EC50): 6.71; pEC50 (Capan-1; 72 h, read-out: EC50): 5.41; pEC50 (HPDE; read-out: EC50): 6.34; pEC50 (AsPC-1; 72 h, read-out: EC50): 7.27; pEC50 (Dan-G; read-out: EC50): 6.35; pEC50 (FAMPAC; read-out: EC50): 6.07; pEC50 (MiaPaCa-2; 72 h, read-out: EC50): 7.27; pEC50 (HuP-T4; 72 h, read-out: EC50): 6.83; pEC50 (PSN-1; 72 h, read-out: EC50): 6.57; pEC50 (PaTu-8988-T; read-out: EC50): 6.17; pEC50 (PANC-1; 72 h, read-out: EC50): 6.68; pEC50 (Colo-357; 72 h, read-out: EC50): 7.46; pEC50 (BxPC-3; 72 h, read-out: EC50): 6.45

Further compounds by falling EC50 (AsPC-1), results first:

Row | EC50 (AsPC-1) [nM] | EC50 (MiaPaCa-2) [nM] | EC50 (PANC-1) [nM] | EC50 (Colo-357) [nM] | EC50 (BxPC-3) [nM] | Structure (SMILES) | EC50 (Suit2-07) [nM] | EC50 (Capan-1) [nM] | EC50 (HPDE) [nM] | EC50 (Dan-G) [nM] | EC50 (FAMPAC) [nM] | EC50 (HuP-T4) [nM] | EC50 (PSN-1) [nM] | EC50 (PaTu-8988-T) [nM] | also measured
10 | 4980 | 2650 | 8920 | 6220 | 1270 | C[C@H]1Oc2cc(cnc2N)-c2c(nn(C)c2C#N)CN(C)C(=O)c2ccc(F)cc21 [Lorlatinib] | 3240 | 1070 | 999 | 3210 | 207 | 1320 | 554 | 5400 | 
11 | 2110 | > 10000 | > 10000 | 3830 | 2210 | CCC(=O)N1CC[C@H](Nc2ncnc3c2CN(c2cnc(OC)c(C(F)(F)F)c2)CC3)C1 [Leniolisib] | 4720 | 4340 | 6030 | 6460 | 2610 | 733 | 8970 | 9180 | 
12 | 1050 | 3580 | 260 | 196 | 1780 | Cc1cn(-c2cc(NC(=O)c3ccc(C)c(Nc4nccc(-c5cnccn5)n4)c3)cc(C(F)(F)F)c2)cn1 [Radotinib] | 99.5 | 4010 | 6.45 | 5910 | 4270 | > 10000 | 11 | 1390 | 
13 | 869 | > 10000 | 6.65 | 5000 | > 10000 | CCCS(=O)(=O)Nc1ccc(F)c(C(=O)c2c[nH]c3ncc(-c4ccc(Cl)cc4)cc23)c1F [Vemurafenib] | 1590 | > 10000 | > 10000 | > 10000 | 2990 | > 10000 | > 10000 | 708 | 
14 | 66.8 | 344 | > 10000 | 24.5 | 2600 | O=c1sn(-c2cccc3ccccc23)c(=O)n1Cc1ccccc1 [Tideglusib] | 9730 | 51.8 | 58 | 1490 | 2070 | 4540 | 0.13 | 636 | 
15 | 56.3 | 4.24 | 74 | 852 | 53.6 | CCN(CCCOc1ccc2c(Nc3cc(CC(=O)Nc4cccc(F)c4)[nH]n3)ncnc2c1)CCOP(=O)(O)O [Barasertib] | 3290 | 42 | 74.6 | 296 | 40.1 | 56.8 | 32.6 | 10300 | 
16 | 1.48 | 718 | 365 | 2640 | 756 | CC#CC(=O)N1CCC[C@H]1c1nc(-c2ccc(C(=O)Nc3ccccn3)cc2)c2c(N)nccn12 [Acalabrutinib] | 13.1 | 3020 | 703 | 553 | > 10000 | 632 | 4470 | 1590 | 
17 | 0.56 | 207 | 1060 | > 10000 | 5220 | COCCNc1cc(NC(=O)N2CCCc3cc(CN4CCN(C)CC4=O)c(C=O)nc32)ncc1C#N [Roblitinib] | 7.75 | 25.8 | 0.09 | 150 | 7290 | 60.7 | 4040 | > 10000 | 
